Experimental data: patent US11059853B2, “Crystalline or amorphous form of steroid derivative FXR agonist, preparation method therefor and use thereof” (Chia Tai Tianqing Pharmaceutical Group Co., Ltd., priority 2017, dated 2021)

Experiments:
[1] = Solid-state stability test (XRPD detection); format: physicochemical; conditions: room temperature/75% RH, 40° C./75% RH, 60° C./75% RH (all open); for Solid-state stability: crystalline form by XRPD compared with Day 0: room temperature/92.5% RH, Day 5 and Day 10
Procedure: In the present application, the X-ray powder diffraction patterns are measured by the following method: instrument: Bruker D8 ADVANCE X-ray diffractometer; method: target: Cu: K-Alpha; wavelength: λ=1.54179 Å; tube voltage: 40 kV; divergence slit: 0.60 mm; detector slit: 10.50 mm; antiscattering slit: 7.10 mm; tube current: 40 mA; scan range: 4° to 40°; scanning speed: 0.12 sec/step, 0.02°/step; sample tray rotation speed: 15 rpm.
The solid-state stability of crystalline Form A was examined under the following conditions: 1) 40° C. (open), 2) 60° C. (open), 3) room temperature/92.5% RH (open), 4) room temperature/75% RH (open), 5) 40° C./75% RH (open), and 6) 60° C./75% RH (open), wherein the room temperature was selected from 20° C. to 30° C.
(§1) Several samples of crystalline Form A in a suitable amount were taken, and placed on the bottom of the glass specimen bottles and spread into a thin layer. The bottles with the samples to be placed under the abovementioned conditions were capped with aluminum-foil paper which has been punched with several small holes, which ensures that the samples could be in full contact with the ambient air.
The solid-state stability of crystalline Form B was examined under the following conditions: 1) room temperature/92.5% RH (open), 2) room temperature/75% RH (open), 3) 40° C./75% RH (open), and 4) 60° C./75% RH (open), which the room temperature was selected from 20° C. to 30° C.
as §1, with “B” for “A”
The solid-state stability for the solid amorphous form of the compound of formula I was examined under the following conditions: 1) room temperature/75% RH (open), 2) 40° C./75% RH (open), 3) 60° C./75% RH (open), wherein the room temperature was selected from 20° C. to 30° C. […]

[2] = Test for hygroscopicity, Dynamic Vapor Sorption (DVS); format: physicochemical; conditions: 25±1° C., 80±2% RH
Procedure: Dynamic Vapor Sorption (DVS) analysis was performed on crystalline Form A and the solid amorphous form of the compound of formula I by the following process and conditions: the samples (10 to 15 mg) were placed in the sample pan; instrument model: SMS DVS Advantage Dynamic Vapor Sorption; temperature: 25° C.; balance: dm/dt=0.01%/min (Min: 10 min, Max: 180 min); drying: for 120 min at 0% RH; RH (%) gradient for testing: 10%; the RH (%) range for gradient testing: 0%-90%-0%. The hygroscopicity was evaluated using the following scale: […]

[3] = Pharmacokinetics in mice administrated with single compound; format: in vivo, mice (C57BL/6J); conditions: mouse, plasma, male C57BL/6J mice; for bioavailability: oral 10 mg/kg vs intravenous 2 mg/kg; for AUC / Cmax / Tmax: oral (intragastrical) 10 mg/kg
Procedure: 12 male mice (C57BL/6J) were randomly divided into two groups, i.e., 6 mice per group. […] Plasma (using K2-EDTA as anticoagulant) samples were taken at 0.083, 0.25, 0.5, 1, 2, 4, 6, 8 and 24 hours in the intravenous administration group after administration; and plasma samples were taken at 0.25, 0.5, 1, 2, 4, 6, 8 and 24 hours in the oral administration group after administration. For 6 animals in each group, blood samples were collected for 3 animals at one time point. The first batch of 3 animals was alternately sampled with the second batch of 3 animals. Plasma sample analysis was performed by using LC-MS/MS. The resultant plasma concentrations were plotted with respect to time, and PK parameters were calculated by using Phoenix WinNonlin 6.3.

[4] = molecular target: T1, Glutathione-S-transferase-labeled FXR human protein (Homo sapiens, UniProt Q96RI1); test: FXR biochemical experiment (AlphaScreen, coactivator recruitment)
T1 sequence (Q96RI1 1-486): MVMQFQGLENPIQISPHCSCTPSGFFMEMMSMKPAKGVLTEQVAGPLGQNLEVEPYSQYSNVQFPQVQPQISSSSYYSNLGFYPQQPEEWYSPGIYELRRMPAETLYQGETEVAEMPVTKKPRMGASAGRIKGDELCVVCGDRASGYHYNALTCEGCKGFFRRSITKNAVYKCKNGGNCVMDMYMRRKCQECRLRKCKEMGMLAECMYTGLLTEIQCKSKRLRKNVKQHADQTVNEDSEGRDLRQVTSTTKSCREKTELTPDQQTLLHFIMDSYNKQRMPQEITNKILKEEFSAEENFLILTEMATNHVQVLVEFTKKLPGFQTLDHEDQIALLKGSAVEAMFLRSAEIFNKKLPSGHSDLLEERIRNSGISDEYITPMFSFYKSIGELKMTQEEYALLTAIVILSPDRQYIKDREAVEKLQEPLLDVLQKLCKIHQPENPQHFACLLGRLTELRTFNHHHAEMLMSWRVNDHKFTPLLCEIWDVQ
Procedure: The activation effect of the compound on FXR binding reaction was detected by AlphaScreen. […] Protein: Glutathione-S-transferase-labeled FXR human protein (Invitrogen) 2. Co-activator: Biotin-labeled steroid receptor coactivator (Anaspec) 3. […] Compound Dilution: The compound to be tested was prepared as a 40 μM DMSO solution, and then diluted 3-fold to 10 concentration points. The reference compound was prepared as a 400 μM DMSO solution, and then diluted 1.5-fold to 10 concentration points. The diluted DMSO solution was added to the wells of a 384-well plate in a volume of 150 nL per well. 2. […] 4. […] The operation during the experimental process was protected from light. The incubation was performed for 1 hour at room temperature. 5. […] The operation during the experimental process was protected from light. The incubation was performed for 1 hour at room temperature. 6. EC50 test: Envision was used with excitation at 680 nm to read the absorbance signals at 520-620 nm. 7. Analytical data: The data were analyzed via using Prism 5.0, and the EC50 values of the activation effects of the compound were calculated.

[5] = molecular target: T2, FXR (FXR HEK 293T DA cells) (Homo sapiens, UniProt Q96RI1); test: FXR cell experiment (β-lactamase reporter gene); format: cell-based
T2 sequence (Q96RI1 262-486 limits assumed): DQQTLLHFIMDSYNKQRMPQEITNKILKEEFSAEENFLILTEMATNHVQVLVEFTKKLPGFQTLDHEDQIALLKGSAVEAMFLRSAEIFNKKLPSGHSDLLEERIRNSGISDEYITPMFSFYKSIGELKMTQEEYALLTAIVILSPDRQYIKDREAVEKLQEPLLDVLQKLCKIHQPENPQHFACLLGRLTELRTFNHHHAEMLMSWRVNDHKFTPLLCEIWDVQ
Procedure: 2. Cell culture medium: DMEM medium supplemented with 10% serum and Penicillin/Streptomycin (1×)
3. Detection reagent: GeneBLAzer® Reporter Gene Detection Kit (Invitrogen)
1. Compound Dilution: The compound to be tested was prepared as a 100 μM DMSO solution, and then the compound was diluted 3-fold to 10 concentration points. The reference compound was prepared as a 100 μM DMSO solution, and then diluted 1.3-fold to 10 concentration points. The diluted DMSO solution was added to the wells of a 384-well plate in a volume of 200 nL per well.
3. The 384-well plate was incubated at 37° C., 5% CO2 for 16 hours.
4. 6 μL of 1 mM LiveBLAzer™-FRET 13/G (CCF4-AM) substrate was mixed with 60 μL of B solution and 934 μL of C solution, and added to the wells of the 384-well plate in a volume of 8 μL per well.
5. The 384-well plate was incubated in dark for 2 hours at room temperature.
7. Analytical data: The data was analyzed via using Prism 5.0, and the EC50 values of the activation effects of the compound were calculated.

| SMILES | hygroscopic weight gain [2] | bioavailability [3] | AUC [3] | Cmax [3] | Tmax [3] | also measured |
| --- | --- | --- | --- | --- | --- | --- |
| CC[C@H]1[C@@H](O)[C@@H]2[C@H](CC[C@]3(C)[C@@H]([C@H](C)CCOc4ncc(C(=O)O)cc4Cl)CC[C@@H]23)[C@@]2(C)CC[C@@H](O)C[C@@H]12 [solid amorphous form of the compound of formula I] | 1.775% |  |  |  |  | Solid-state stability: XRPD compared with Day 0 ([1]; Day 10 and one month): remained unchanged |
| CC[C@H]1[C@@H](O)[C@@H]2[C@H](CC[C@]3(C)[C@@H]([C@H](C)CCOc4ncc(C(=O)O)cc4Cl)CC[C@@H]23)[C@@]2(C)CC[C@@H](O)C[C@@H]12 [crystalline Form A] | 0.835% |  |  |  |  | Solid-state stability: crystalline form by XRPD compared with Day 0 ([1]; 40° C., 60° C.): remained unchanged |
| CC[C@H]1[C@@H](O)[C@@H]2[C@H](CC[C@]3(C)[C@@H]([C@H](C)CCC(=O)O)CC[C@@H]23)[C@@]2(C)CC[C@@H](O)C[C@@H]12 [Obeticholic acid, reference compound] |  | 13% | 0.993 µM·h | 1010 nM | 18 min |  |
| CC[C@H]1[C@@H](O)[C@@H]2[C@H](CC[C@]3(C)[C@@H]([C@H](C)CCOc4ncc(C(=O)O)cc4Cl)CC[C@@H]23)[C@@]2(C)CC[C@@H](O)C[C@@H]12 [crystalline Form B] |  |  |  |  |  | Solid-state stability: crystalline form by XRPD compared with Day 0 [1]: remained unchanged |
| CC[C@H]1[C@@H](O)[C@@H]2[C@H](CC[C@]3(C)[C@@H]([C@H](C)CCOc4ncc(C(=O)O)cc4Cl)CC[C@@H]23)[C@@]2(C)CC[C@@H](O)C[C@@H]12 [The compound of formula I] |  | 20% | 1.11 µM·h | 1780 nM | 30 min | EC50 ([4]; AlphaScreen, GST-FXR human protein with biotin-labeled steroid receptor coactivator, read-out: FXR enzyme activity EC50): 2.5 nM; FXR enzyme activity Efficacy ([4]; highest signal relative to the reference compound): 248%; EC50 ([5]; FXR HEK 293T DA cells, β-lactamase reporter gene, 16 hours, read-out: FXR cell viability EC50): 3 nM; FXR cell viability Efficacy ([5]; highest signal relative to reference compound CDCA): 150% |
